Test results reported in patent US8980226B2, “Aerosolized fosfomycin/aminoglycoside combination for the treatment of bacterial respiratory infections” (Gilead Sciences, Inc., priority 2004, dated 2015).
Where two headings read alike, the source gives them in different places.

How the values were obtained:
Type in all cases: cell-based
P. aeruginosa COR-014 = assay: Multistep resistance analysis (continuous serial passage); details: for MIC: Pseudomonas aeruginosa
Description: A single colony of P. aeruginosa COR-014 was inoculated into 5 mL of MHCAB and briefly vortexed. Two-fold serial dilutions of fosfomycin alone covering the range of 1 μg/mL-512 μg/mL, tobramycin alone covering 0.0625 μg/mL-512 μg/mL, and a 9:1 fosfomycin:tobramycin combination covering 0.0625 μg/mL-512 μg/mL were made in CAMHB. Ten microliters of bacterial suspension was pipetted into 3 mL of each antibiotic dilution and incubated statically at 35° C. for 18-24 hours. Tubes with the highest concentration of antibiotic having visible bacterial growth were selected from each antibiotic dilution series and 100 μl of the culture was pipeted into a fresh antibiotic dilution series. Tubes were incubated statically at 35° C. for 18-24 hours. This process was repeated for a total of 28 times. MICs of fosfomycin alone, tobramycin alone, and fosfomycin plus tobramycin were determined for the parent strain and resistant isolates collected after each passage as described in Example 5, Method C.

P. aeruginosa ATCC 27853 [1] = assay: Time-kill kinetics in the presence of 2% porcine gastric mucin; details: for killing in time-kill curves / Time to reach bactericidal killing, antibiotic alone: P. aeruginosa ATCC 27853; for killing in time-kill curves: FIGS. 1-7, fosfomycin and tobramycin alone as comparators of the combination; for Time to reach bactericidal killing, antibiotic alone: single antibiotic, 32 μg/mL
Description: Two to three bacterial colonies were inoculated into 10 mL CAMHB and incubated at 35° C. in a shaking water bath (250 rpm) for 18-24 hours. […] The resulting culture was adjusted to a 0.5 McFarland standard (NCCLS, 2003). […] Ten milliliter aliquots were then pipeted into 50 mL conical tubes. […] The killing activity of fosfomycin plus amikacin, arbekacin, dibikacin, gentamicin, kanamycin, […], neomycin, streptomycin, or tobramycin were also compared to the killing activity of their individual components alone. […] A no drug control was run in each experiment. Cultures were incubated with antibiotic at 35° C. in a shaking (250 rpm) water bath for 24 hours. […] Culture plates were incubated at 35° C. for 18-24 hours and the number of colonies enumerated manually. The limit of detection for the colony counting method was 1 Log10). Time-kill curves were constructed by plotting the Log10 number of CFU/mL culture versus time.

E. coli ATCC 25922 = assay: MBC/MIC, broth microdilution
Description: (§1) “Minimal bactericidal concentration (MBC)” means the lowest concentration of antibiotic that results in ≧3 Log10 of bacterial killing.
(§2) The MICs of amikacin, arbekacin, dibekacin, gentamicin, kanamycin, netilimicin, neomycin, streptomycin, and tobramycin alone were determined for P. aeruginosa ATCC 27853 by the broth-microdilution method according to NCCLS standards (NCCLS, 2003). E. coli ATCC 25922 and S. aureus ATCC 29213 were used as quality control stains. Bacterial strains were streaked onto blood agar plates, and incubated at 35° C. for 18 hours. Two to three bacterial colonies from the overnight cultures were inoculated into 3 mL of sterile normal saline, vortexed briefly, and adjusted to a 0.5 McFarland standard (NCCLS, 2003). The bacterial suspension was diluted 1:100 in cation-adjusted Mueller-Hinton broth (hereafter referred to as CAMHB). Fifty microliters of bacterial inoculum (approximately 2×10^5 CFU/mL) was pipeted into individual wells of 96-well plates containing 50 μl of CAMHB (Remel, Lenexa, Kanas) supplemented with 2-fold dilutions of antibiotics ranging in concentration from 0.125 μg/mL to 128 μg/mL. The MIC was defined as the lowest concentration of antibiotic (s) that prevented visible growth after incubation at 35° C. for 18-24 hours.
(§3) The MBCs of fosfomycin, amikacin, arbekacin, dibikacin, gentamicin, kanamycin B, netilimicin, neomycin, streptomycin, or tobramycin alone for P. aeruginosa ATCC 27853, E. coli ATCC 25922, and S. aureus ATCC 29213 were determined by the broth microdilution method according to NCCLS standards (NCCLS, 1999). Bacterial strains were streaked onto blood agar plates and incubated at 35° C. for 18-24 hours. Two to three bacterial colonies from the overnight cultures were inoculated into 3 mL of sterile normal saline, vortexed briefly, and adjusted to a 0.5 McFarland standard (NCCLS, 2003). Fifty microliters of bacterial inoculum (approximately 2×10^5 CFU/mL) was pipeted into individual wells of 96-well plates containing 50 μl of CAMHB (Remel, Lenexa, Kanas) supplemented with 2-fold dilutions of antibiotics ranging in concentration from 0.125 μg/mL to 128 μg/mL. Plates were incubated at 35° C. for 18-24 hours and MIC determined as described in Example 5, Method C. The contents of wells showing no growth (MIC and above) were mixed with a pipetor and duplicate 10 μl samples spread onto blood agar plates. Culture plates were incubated at 35° C. for 18-24 hours and the number of bacterial colonies on each plate enumerated manually. Rejection values were determined by NCCLS methods which considers the final inoculum size, single or double sampling, pipetting error, and the Poisson distribution of sample responses (NCCLS, 1999). […] The MBC was defined as the ≧3 Log10 decrease in CFU/mL of the original inoculum as described by NCCLS standards (NCCLS, 1999). The MBC/MIC ratios were calculated by dividing the MBC by the MIC.

P. aeruginosa ATCC 27853 [2] = assay: MBC/MIC, broth microdilution
Description: as §1, §2, §3

S. aureus ATCC 29213 = assay: MBC/MIC, broth microdilution
Description: as §1, §2, §3

[3] = 28 days of continuous exposure, clinical P. aeruginosa strain
[4] = COR014, 168 h, read-out: MIC 7d
[5] = COR014, 336 h, read-out: MIC 14d
[6] = COR014, 504 h, read-out: MIC 21d
[7] = COR014, 672 h, read-out: MIC 28d
[8] = COR014, read-out: MIC of the parent strain

| Compound | increase in MIC on continuous exposure (P. aeruginosa COR-014; [3]) | MIC (P. aeruginosa COR-014; COR014, 0 h, read-out: MIC 0d) | MIC (P. aeruginosa COR-014; [4]) | MIC (P. aeruginosa COR-014; [5]) | MIC (P. aeruginosa COR-014; [6]) | MIC (P. aeruginosa COR-014; [7]) | MIC (P. aeruginosa COR-014; [8]) | rank of killing activity, combinations and tobramycin alone compared (P. aeruginosa ATCC 27853 [1]; 16 ug/mL, FIGS. 8 and 9) | killing in time-kill curves (P. aeruginosa ATCC 27853 [1]) | Time to reach bactericidal killing, antibiotic alone (P. aeruginosa ATCC 27853 [1]) | MBC/MIC E. coli (E. coli ATCC 25922) | MBC/MIC P. aeruginosa (P. aeruginosa ATCC 27853 [2]) | MBC/MIC Aminoglycoside (P. aeruginosa ATCC 27853 [2]; aminoglycoside alone) | MBC/MIC S. aureus (S. aureus ATCC 29213) | development of resistance on continuous exposure (P. aeruginosa COR-014; [3]) | MBC/MIC P. aeruginosa (P. aeruginosa ATCC 27853 [2]; listed as fosfomycin) |
| --- | --- | --- | --- | --- | --- | --- | --- | --- | --- | --- | --- | --- | --- | --- | --- | --- |
| NC[C@H]1O[C@H](O[C@H]2[C@H](O)[C@@H](O[C@H]3O[C@H](CO)[C@@H](O)[C@H](N)[C@H]3O)[C@H](N)C[C@@H]2N)[C@H](N)C[C@@H]1O [Tobramycin] | 128 fold | 0.5 µg/mL | 0.5 µg/mL | 0.5 µg/mL | 32 µg/mL | 64 µg/mL | 0.5 µg/mL | most active antibiotic | bacteriostatic killing | 1 h | 1 | 1 | 1 | 8 |  |  |
| C[C@@H]1O[C@@H]1P(=O)(O)O [Fosfomycin] |  | 16 µg/mL | > 512 µg/mL | > 512 µg/mL | > 512 µg/mL | > 512 µg/mL | 8 µg/mL |  | bacteriostatic killing | not bactericidal | 8 | ≧8 |  | 1 | rapid and dramatic development of resistance | ≥ 8 |
